Laboratory results: patent US20190031615A1, “3-ETHYL-3-PHENYLAZEPANE DERIVATIVES HAVING MULTIMODAL ACTIVITY AGAINST PAIN” (LABORATORIOS DEL DR. ESTEVE S.A., priority 2016, published 2019)
pKi: −log10 of the molar value.

What follows are molecules tested on σ1 receptor and μ-opioid receptor (assay: Human σ1 receptor and human μ-opioid receptor radioligand assays (dual binding scale)). Conditions: joint class for both Ki; σ1: [3H](+)-pentazocine, transfected HEK-293 membranes; μ: [3H]-DAMGO, transfected CHO-K1 cell membranes.
Set-up: key to μ and σ1 dual binding: +: Both Ki-μ and Ki-σ1>=500 nM; ++: One Ki <500 nM while the other Ki is >=500 nM; +++: Both Ki-μ and Ki-σ1 <500 nM; ++++: Both Ki-μ and Ki-σ1 <100 nM
Method: To investigate binding properties of test compounds to human […] receptor, transfected HEK-293 membranes and [^3H](+)-pentazocine (Perkin Elmer, NET-1056), as the radioligand, were used. The assay was carried out with 7 μg of membrane suspension, 5 nM of [^3H](+)-pentazocine in either absence or presence of either buffer or 10 μM Haloperidol for total and non-specific binding, respectively. Binding buffer contained Tris-HCl 50 mM at pH 8. Plates were incubated at 37° C. for 120 minutes. After the incubation period, the reaction mix was then transferred to MultiScreen HTS, FC plates (Millipore), filtered and plates were washed 3 times with ice-cold 10 mM Tris-HCL (pH7.4). Filters were dried and counted at approximately 40% efficiency in a MicroBeta scintillation counter (Perkin-Elmer) using EcoScint liquid scintillation cocktail
To investigate binding properties of test compounds to human μ-opioid receptor, transfected CHO-K1 cell membranes and [^3H]-DAMGO (Perkin Elmer, ES-542-C), as the radioligand, were used. The assay was carried out with 20 μg of membrane suspension, 1 nM of [^3H]-DAMGO in either absence or presence of either buffer or 10 μM Naloxone for total and non-specific binding, respectively. Binding buffer contained Tris-HCl 50 mM, MgCl2 5 mM at pH 7.4. Plates were incubated at 27° C. for 60 minutes. After the incubation period, the reaction mix was then transferred to MultiScreen HTS, FC plates (Millipore), filtered and plates were washed 3 times with ice-cold 10 mM Tris-HCL (pH 7.4). Filters were dried and counted at approximately 40% efficiency in a MicroBeta scintillation counter (Perkin-Elmer) using EcoScint liquid scintillation cocktail.
For `CCC1(c2cccc(O)c2)CCCCN(CCO)C1` (stereo not shown) [Example 10, 3-(3-ethyl-1-(2-hydroxyethyl)azepan-3-yl)phenol], the “μ and σ1 dual binding” value was “++”. In the case of `CCOCCN1CCCCC(CC)(c2cccc(NS(=O)(=O)C(C)C)c2)C1` (stereo not shown) [Example 24, N-{3-[1-(2-Ethoxyethyl)-3-ethylazepan-3-yl]phenyl}propane-2-sulfonamide], the pKi was no more than 6.30. With `CCOCCN1CCCC[C@@](CC)(c2cccc(O)c2)C1` (stereo in doubt) [Example 20, (S)-3-(1-(2-ethoxyethyl)-3-ethylazepan-3-yl)phenol] the “μ and σ1 dual binding” value was “++”. With `CCC1(c2cccc(O)c2)CCCCN(CC(=O)N2CCOCC2)C1` (stereo not shown) [Example 16, 2-(3-ethyl-3-(3-hydroxyphenyl)azepan-1-yl)-1-morpholinoethanone] the pKi was no more than 6.30. For `CCC1(c2cccc(O)c2)CCCCN(CCN2CCCCC2)C1` (stereo not shown) [Example 9, 3-(3-ethyl-1-(2-(piperidin-1-yl)ethyl)azepan-3-yl)phenol], the pKi was greater than 6.30. Molecule `CCOCCN1CCCCC(CC)(c2cccc(O)c2)C1` (stereo not shown) [Example 11, 3-(1-(2-Ethoxyethyl)-3-ethylazepan-3-yl)phenol] has a pKi greater than 7.00. In the case of `CCC1(c2cccc(OC)c2)CCCCN(CCN2CCOCC2)C1` (stereo not shown) [Example 3, 4-(2-(3-Ethyl-3-(3-methoxyphenyl)azepan-1-yl)ethyl)morpholine], the pKi was no more than 6.30. `CCOCCN1CCCCC(CC)(c2cccc(N)c2)C1` (stereo not shown) [Example 22, 3-[1-(2-Ethoxyethyl)-3-ethylazepan-3-yl]aniline] was tested, and the pKi was no more than 6.30. With `CCC1(c2cccc(O)c2)CCCCN(CCOCC(C)(C)O)C1` (stereo not shown) [Example 19, 3-(3-ethyl-1-(2-(2-hydroxy-2-methylpropoxy)ethyl)azepan-3-yl)phenol] the “μ and σ1 dual binding” value was “++”. With `CCC1(c2cccc(OC)c2)CCCCN(CCN2CCN(C)CC2)C1` (stereo not shown) [Example 1, 3-Ethyl-3-(3-methoxyphenyl)-1-(2-(4-methylpiperazin-1-yl)ethyl)azepane] the pKi was no more than 6.30. `CCOCCN1CCCCC(CC)(c2cccc(OC)c2)C1` (stereo not shown) [Example 5, 1-(2-ethoxyethyl)-3-ethyl-3-(3-methoxyphenyl)azepane] was tested, and the pKi was no more than 6.30. In the case of `CCC1(c2cccc(O)c2)CCCCN(CCN2CCN(c3ccccc3)CC2)C1` (stereo not shown) [Example 7, 3-(3-ethyl-1-(2-(4-phenylpiperazin-1-yl)ethyl)azepan-3-yl)phenol], the “μ and σ1 dual binding” value was “++”. `CCOCCN1CCCCC(CC)(c2cccc(NS(C)(=O)=O)c2)C1` (stereo not shown) [Example 23, N-{3-[1-(2-Ethoxyethyl)-3-ethylazepan-3-yl]phenyl}methanesulfonamide] was tested, and the pKi was no more than 6.30. With `CCC1(c2cccc(O)c2)CCCCN(CCOC)C1` (stereo not shown) [Example 17, 3-(3-ethyl-1-(2-methoxyethyl)azepan-3-yl)phenol] the “μ and σ1 dual binding” value was “++”. In the case of `CCOCCN1CCCC[C@](CC)(c2cccc(O)c2)C1` (stereo in doubt) [Example 21, (R)-3-(1-(2-ethoxyethyl)-3-ethylazepan-3-yl)phenol], the “μ and σ1 dual binding” value was “++”. For `CCC1(c2cccc(O)c2)CCCCN(CCN2CCOCC2)C1` (stereo not shown) [Example 8, 3-(3-ethyl-1-(2-morpholinoethyl)azepan-3-yl)phenol], the “μ and σ1 dual binding” value was “++”. For `CCC1(c2cccc(O)c2)CCCCN(CC(=O)N2CCCCC2)C1` (stereo not shown) [Example 13, 2-(3-ethyl-3-(3-hydroxyphenyl)azepan-1-yl)-1-(piperidin-1-yl)ethanone], the “μ and σ1 dual binding” value was “++”. `CCC1(c2cccc(OC)c2)CCCCN(CCN2CCCCC2)C1` (stereo not shown) [Example 4, 3-ethyl-3-(3-methoxyphenyl)-1-(2-(piperidin-1-yl)ethyl)azepane] gave a pKi of no more than 6.30. For `CCC1(c2cccc(O)c2)CCCCN(CCOC2CC2)C1` (stereo not shown) [Example 18, 3-(1-(2-cyclopropoxyethyl)-3-ethylazepan-3-yl)phenol], the “μ and σ1 dual binding” value was “++”. In the case of `CCC1(c2cccc(O)c2)CCCCN(CCOc2cccnc2)C1` (stereo not shown) [Example 14, 3-(3-ethyl-1-(2-(pyridin-3-yloxy)ethyl)azepan-3-yl)phenol], the “μ and σ1 dual binding” value was “++”. `CCC1(c2cccc(O)c2)CCCCN(CCN2CCN(C)CC2)C1` (stereo not shown) [Example 6, 3-(3-Ethyl-1-(2-(4-methylpiperazin-1-yl)ethyl)azepan-3-yl)phenol] was tested, and the “μ and σ1 dual binding” value was “++”. For `CCC1(c2cccc(O)c2)CCCCN(CCOC(C)C)C1` (stereo not shown) [Example 12, 3-(3-ethyl-1-(2-isopropoxyethyl)azepan-3-yl)phenol], the pKi was greater than 6.30.
